# From US20110105538A1, “DRUG RESPONSE MARKERS” (GUY'S & ST THOMAS'S NHS FOUNDATION TRUST, priority 2008, published 2011)
# Read-outs that look alike come from different tables or passages of the source.
# How the values were obtained:
# [1] = test system: patients with Inflammatory Bowel Disease; settings: for Allele frequencies: Deletion allele / Allele frequencies: Insertion Allele: number of alleles (%); for Genotype: Insertion no / Genotype: Insertion yes / Genotype frequencies: Insertion no / Genotype frequencies: Insertion yes: number of patients
# [2] = test system: patients with IBD (Inflammatory Bowel Disease); assay: Prospective cohort starting 2 mg/kg AZA for IBD (Example 2): response versus AOX3404A>G, TPMT activity and HLA-G markers
# [3] = test system: patients with Inflammatory Bowel Disease; settings: for Genotype frequencies: Insertion no / Genotype frequencies: Insertion yes: number of patients (%); for Allelic frequencies: Deletion allele / Allelic frequencies: Insertion Allele: number of alleles (%)
# [4] = Crohn's Disease Patients, Outcome Failure
# [5] = Crohn's Disease Patients, Outcome Response
# [6] = Ulcerative Colitis Patients, Outcome Failure
# [7] = Ulcerative Colitis Patients, Outcome Response
# [8] = of cohort of 182 patients starting 2 mg/kg
# [9] = number of patients with side effect
smiles,measurement,setting,value
Cn1cnc([N+](=O)[O-])c1Sc1ncnc2nc[nH]c12 [azathioprine],Allele frequencies: Deletion allele,"[1]; All Patients, Outcome Failure",50 (64%)
same,Allele frequencies: Insertion Allele,"[1]; All Patients, Outcome Failure",30 (36%)
same,Allele frequencies: Deletion allele,"[1]; All Patients, Outcome Response",39 (34%)
same,Allele frequencies: Insertion Allele,"[1]; All Patients, Outcome Response",75 (65%)
same,Genotype: Insertion no,"[1]; CD, Fail",2
same,Genotype: Insertion yes,"[1]; CD, Fail",17
same,Genotype: Insertion no,"[1]; CD, Response",15
same,Genotype: Insertion yes,"[1]; CD, Response",14
same,Allele frequencies: Deletion allele,[1]; [4],14 (37%)
same,Allele frequencies: Insertion Allele,[1]; [4],24 (63%)
same,Allele frequencies: Deletion allele,[1]; [5],45 (69%)
same,Allele frequencies: Insertion Allele,[1]; [5],18 (31%)
same,Genotype: Insertion no,"[1]; UC, Fail",3
same,Genotype: Insertion yes,"[1]; UC, Fail",18
same,Genotype: Insertion no,"[1]; UC, Response",10
same,Genotype: Insertion yes,"[1]; UC, Response",18
same,Allele frequencies: Deletion allele,[1]; [6],16 (38%)
same,Allele frequencies: Insertion Allele,[1]; [6],26 (62%)
same,Allele frequencies: Deletion allele,[1]; [7],45 (62%)
same,Allele frequencies: Insertion Allele,[1]; [7],21 (37%)
same,Genotype frequencies: Insertion no,"[1]; all patients, Outcome Fail",21
same,Genotype frequencies: Insertion yes,"[1]; all patients, Outcome Fail",30
same,Genotype frequencies: Insertion no,"[1]; all patients, Outcome Response",50
same,Genotype frequencies: Insertion yes,"[1]; all patients, Outcome Response",32
same,Fisher's exact test OR,"[1]; allele frequencies, All Patients",OR = 3.2
same,Fisher's exact test OR,"[1]; allele frequencies, Crohn's Disease Patients",OR = 4.2
same,Fisher's exact test OR,"[1]; allele frequencies, Ulcerative Colitis Patients",OR = 3.4
same,Fisher's exact test OR,"[1]; genotype frequencies, all patients","OR = 2.2,"
same,Fisher's exact test OR,"[1]; genotype, CD","OR = 9,"
same,Fisher's exact test OR,"[1]; genotype, UC","OR = 3,"
same,patients identified as responders to therapy,"[1]; of 100 patients completing minimum three months, steroid withdrawal and Harvey Bradshaw index less than four",50 patients
same,withdrew due to intolerable side-effects,[1]; of the 140 patients recruited,40
same,non-responders,[2]; [8],44
same,responders,[2]; [8],66
same,those discontinuing treatment due to side effects,[2]; [8],72
same,chance of responding,[2]; those with all adverse predictors,14%
same,chance of responding,[2]; those with no adverse predictors,95%
CN(Cc1cnc2nc(N)nc(N)c2n1)c1ccc(C(=O)N[C@@H](CCC(=O)O)C(=O)O)cc1 [methotrexate],association between side effects and folate supplementation,"[3]; 94 patients on folate, 39 never on folate",No association
same,Genotype frequencies: Insertion no,[3]; Outcome Fail (91 pts.),21 (23%%)
same,Genotype frequencies: Insertion yes,[3]; Outcome Fail (91 pts.),70 (77%)
same,Allelic frequencies: Deletion allele,[3]; Outcome Failure,86 (47%)
same,Allelic frequencies: Insertion Allele,[3]; Outcome Failure,96 (52%)
same,Genotype frequencies: Insertion no,[3]; Outcome Response (91 pts.),40 (44%)
same,Genotype frequencies: Insertion yes,[3]; Outcome Response (91 pts.),51 (56%)
same,Allelic frequencies: Deletion allele,[3]; Outcome Response,113 (62%)
same,Allelic frequencies: Insertion Allele,[3]; Outcome Response,69 (37%)
same,Fisher's exact test OR,"[3]; allelic frequencies, response vs failure",OR = 1.8
same,Fisher's exact test OR,"[3]; genotype frequencies, response vs fail","OR = 2.6,"
same,patients developed side effects,[3]; methotrexate group,45 patients
same,patients withdrawn from therapy as a direct consequence of their side-effect,[3]; methotrexate group,21 patients
same,abdominal pain,[3]; [9],one
same,alopecia,[3]; [9],one
same,haematological abnormalities including neutropenia,[3]; [9],four
same,minor infections,[3]; [9],four
same,mucositis,[3]; [9],two
same,muscle and joint pains,[3]; [9],three
same,nausea,[3]; [9],16
same,skin rash,[3]; [9],three
same,transient LFT abnormalities,[3]; [9],10
same,patients responded to treatment (percent),[3]; of 187 patients completing at least three months of therapy,51%
same,patients responded to treatment,"[3]; of 187 patients completing at least three months of therapy, response = steroid withdrawal or documented efficacy",97 patients
same,response to treatment between administration regimes,[3]; oral vs subcutaneous vs intramuscular induction progressing to oral,no difference in the response to treatment
